Consider one compound from paper PMC3510438, “The transmembrane tyrosines Y56, Y91 and Y167 play important roles in determining the affinity and transport rate of the rabbit proton-coupled peptide transporter PepT1” (The International Journal of Biochemistry & Cell Biology, 2009).

Where a chain is given by its changes, count along the chain named. Several values for one entry are separate records, joined by “and”; a condition that tells them apart may be missing. Equal entries are not always repeated. Where a SMILES comes first, the peptide text is derived from it.

Holding throughout (type): cell-based, rabbit
One test concerns the target T1, wild-type rPepT1 (Oryctolagus cuniculus, UniProt P36836).
T1 construct: expressed in transfected cells; host or cells: Xenopus laevis oocytes injected with cRNA
T1 sequence (P36836 1-707): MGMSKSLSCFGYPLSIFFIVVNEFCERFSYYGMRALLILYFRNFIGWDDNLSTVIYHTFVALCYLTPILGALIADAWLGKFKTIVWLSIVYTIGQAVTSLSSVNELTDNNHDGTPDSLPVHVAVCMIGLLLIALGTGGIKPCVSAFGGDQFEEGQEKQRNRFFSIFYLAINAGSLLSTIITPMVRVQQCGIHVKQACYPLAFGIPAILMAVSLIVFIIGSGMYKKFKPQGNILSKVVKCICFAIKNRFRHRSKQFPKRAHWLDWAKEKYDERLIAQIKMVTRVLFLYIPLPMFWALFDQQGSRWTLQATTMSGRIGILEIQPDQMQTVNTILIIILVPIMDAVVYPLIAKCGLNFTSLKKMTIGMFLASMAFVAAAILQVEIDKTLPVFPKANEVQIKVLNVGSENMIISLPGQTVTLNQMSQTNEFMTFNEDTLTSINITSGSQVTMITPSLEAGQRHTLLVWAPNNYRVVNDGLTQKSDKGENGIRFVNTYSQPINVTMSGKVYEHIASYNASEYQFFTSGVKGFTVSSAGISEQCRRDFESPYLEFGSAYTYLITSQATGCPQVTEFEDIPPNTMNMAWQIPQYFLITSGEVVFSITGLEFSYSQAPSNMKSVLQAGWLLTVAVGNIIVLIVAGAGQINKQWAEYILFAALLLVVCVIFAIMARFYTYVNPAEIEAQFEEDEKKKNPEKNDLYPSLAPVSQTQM
The experiment in a line: Competition of [3H]-D-Phe-L-Gln uptake into Xenopus oocytes, Ki by method of Deves and Boyd. As to conditions: against 0.4 μM [3H]-D-Phe-L-Gln uptake. As to the method: (§1) rPepT1 constructs were linearised with XbaI (New England Biolabs, UK) and cRNA generated by in vitro transcription (T7 mMessage mMachine, Ambion, Cambridgeshire, UK). Xenopus laevis oocytes were obtained under MS222 anaesthesia (0.2%, w/v) in accordance with the UK Animals (Scientific Procedures) Act, 1986, and maintained at 18 °C in modified Barth's medium (88 mM NaCl, 1 mM KCl, 0.82 mM MgSO4, 2.4 mM NaHCO3, 0.42 mM CaCl2, 10 mM Hepes, 5 mM sodium pyruvate, 50 μg ml^−1 gentamicin (Fluka, Poole, UK), adjusted to pH 7.6 with 1 M NaOH). Transport measurements were performed at least 72 h after micro-injection of oocytes with 27nl cRNA (1 μg/μl), with medium changed daily.
(§2) Uptake of [^3H]-D-Phe-L-Gln (17.4 Ci/mmole, custom synthesised, Cambridge Research Biochemicals, Stockton-on-Tees, UK) was performed as previously described ([Meredith, 2004]). Briefly, 5 oocytes were incubated in 100 μl of uptake medium (95 mM NaCl, 2 mM KCl, 1 mM CaCl2, 0.42 mM MgCl2, 10 mM Tris/Hepes pH 7.4 or Tris/Mes pH 5.5) with tracer (0.4 μM) [^3H]-D-Phe-L-Gln. After incubation, the oocytes were washed sequentially five times in 1 ml of ice-cold 120 mM NaCl solution, lysed individually with 100 μl 2% (w/v) SDS and liquid scintillation counted. As a control non-injected oocytes were also incubated in uptake medium with D-Phe-L-Gln as above.
(§3) The affinity of wild-type and mutant rPepT1 transporters were assessed by competition studies with 0.4 μM [^3H]-D-Phe-L-Gln and Gly-L-Gln present in the uptake medium in concentrations from 0 to 2 mM using the protocol above, and the Ki calculated using the method of [Deves and Boyd (1989)].

In the next test the target is T2, Y91Q-rPepT1 (Oryctolagus cuniculus, UniProt P36836, Y91Q).
T2 construct: expressed in transfected cells; host or cells: Xenopus laevis oocytes injected with cRNA
T2 sequence (P36836 1-707 Y91Q): T1 sequence (P36836 1-707) with Y91Q
The experiment in a line: Competition of [3H]-D-Phe-L-Gln uptake into Xenopus oocytes, Ki. The settings on record: pHout 7.4; against 0.4 μM [3H]-D-Phe-L-Gln uptake. As to the method: as §1, §2, §3

Another test deals with T3, Y91R-rPepT1 (Oryctolagus cuniculus, UniProt P36836, Y91R).
T3 construct: expressed in transfected cells; host or cells: Xenopus laevis oocytes injected with cRNA
T3 sequence (P36836 1-707 Y91R): T1 sequence (P36836 1-707) with Y91R
Described as above. The settings on record: pHout 7.4; against 0.4 μM [3H]-D-Phe-L-Gln uptake. As to the method: as §1, §2, §3

As to `NCC(=O)N[C@@H](CCC(N)=O)C(=O)O` [Gly-L-Gln] (H-Gly-Gln-OH), the Ki is 320 µM and 330 µM on wild-type rPepT1 (pHout 5.5); 110 ± 10 µM at wild-type rPepT1 (pHout 7.4); 30 ± 5 µM at Y91Q-rPepT1; 3 ± 1 µM at Y91R-rPepT1.

The term Ki denotes a measure of affinity in units of concentration, obtained from inhibition or displacement. Higher therefore signals weaker binding.
